Structures are written as SMILES.

The test system of one test is IT-wt and IT-tg mice. Put plainly: Cocaine-induced hyperlocomotion on day 6 in IT-wt and IT-tg mice. The class given is in vivo. Conditions: cocaine 10 mg/kg daily 5 days, day 6 donepezil 1 mg/kg 10 min before cocaine. As for the experimental part:
Cholinergic cell-eliminated (IT-tg) mice wherein ACh-expressing cells (cholinergic cells) in the NAc were ablated were prepared and used in the experiment for examining the effects of reduction of ACh level in the NAc on sensitivity to an addictive drug (a drug dependence-producing drug). Selective ablation of cholinergic cells in the NAc was conducted through immunotoxin-mediated cell targeting (IMCT) techniques using transgenic mice and anti-Tac(Fv)-PE38 as the immunotoxin (Kobayashi et al., Proc. Natl Acad. Sci. USA 92, 1132-1136 (1995); Watanabe et al., Cell 95, 17-27 (1998)). Anti-Tac (Fv)-PE38 is a recombinant fusion protein composed of a variable region of a monoclonal antibody against human interleukin 2 receptor α subunit (hIL-2Rα) and Pseudomonas exotoxin, and can be purified from E. coli BL21 as described by Chaudhary et al. (Nature 339, 394-397 (1989)). Anti-Tac(Fv)-PE38 is an immunotoxin that can specifically recognize cells expressing hIL-2Rα and inhibits their protein synthesis, thereby eliminating the cells expressing hIL-2Rα. […]
The present investigation was conducted to examine whether ACh derived from the NAc cholinergic cells is responsible for cocaine-induced hyperlocomotion. […] Their cocaine-induced locomotion was then measured for 10 min (n=7-11 for each group). […]

For test [1], the system named is wild-type mice. As to the kind of experiment: Cocaine CPP test in wild-type mice. Conditions: donepezil hydrochloride 1 or 3 mg/kg i.p. (both doses) 20 min before drug, cocaine 10 mg/kg daily, 3 days, P<0.01, FIG. 5a.
Test [2] deals with wild-type mice. Put plainly: Morphine conditioned place preference (CPP) test in wild-type mice. The following applies: donepezil hydrochloride 1 or 3 mg/kg i.p. (both doses) 20 min before morphine 5 mg/kg, 3-day conditioning, P<0.01, FIG. 4a.
The test system of test [3] is wild-type mice. As to the kind of experiment: Relapse of cocaine-induced hyperlocomotion after drug deprivation, wild-type mice. The class given is in vivo. Conditions: cocaine 10 mg/kg 6 days, withheld days 7-11, day 12 donepezil 1 mg/kg 10 min before cocaine, P<0.001 vs saline, FIG. 5e. As for the experimental part: Drug-induced sensitization caused by continuous daily cocaine administration persists for a long term even after a prolonged period of abstinence from the drug. This is taken seriously as a mechanism of relapse, whereby a drug dependent individual resumes taking a drug after a long-term interruption. The effects of donepezil in blocking relapse of cocaine dependence were examined as follows: Wild-type mice (9-13 weeks) received intraperitoneal injection of cocaine (10 mg/kg) once a day for 6 days and cocaine dependence was established in mice. For 5 days, from day 7 to day 11, mice were withheld from cocaine and were kept in their home cage. On day 12, the mice were pretreated with saline or donepezil (1 mg/kg) 10 min before intraperitoneal injection with cocaine (10 mg/kg). The locomotor activity was then measured for 10 min (n=6 for each group).

In test [4] the test system is wild-type mice. Put plainly: Cocaine-induced hyperlocomotion on day 6 after establishment of cocaine dependence, wild-type mice. In kind it is in vivo. The following applies: cocaine 10 mg/kg i.p. daily 5 days, day 6 pretreatment 1 mg/kg 10 min before cocaine, FIG. 5c, P<0.001, P<0.01. As for the experimental part: Wild-type mice (9-13 weeks) received intraperitoneal injection of cocaine (10 mg/kg) once a day for 5 days. […] On day 6, the mice were pretreated with saline, donepezil (1 mg/kg) or galanthamine (1 mg/kg) 10 min before intraperitoneal injection of cocaine (10 mg/kg), and the cocaine-induced locomotor activity was measured for 10 min (n=5-12 for each group).

The test system of test [5] is IT-tg and IT-wt mice. Put plainly: Morphine CPP test in cholinergic cell-eliminated (IT-tg) and IT-wt mice with donepezil pretreatment. Conditions: donepezil hydrochloride 1 mg/kg i.p. 20 min before morphine 5 mg/kg, 3-day conditioning. In kind it is in vivo.
Experimental: Cholinergic cell-eliminated (IT-tg) mice wherein ACh-expressing cells (cholinergic cells) in the NAc were ablated were prepared and used in the experiment for examining the effects of reduction of ACh level in the NAc on sensitivity to an addictive drug (a drug dependence-producing drug). Selective ablation of cholinergic cells in the NAc was conducted through immunotoxin-mediated cell targeting (IMCT) techniques using transgenic mice and anti-Tac(Fv)-PE38 as the immunotoxin (Kobayashi et al., Proc. Natl Acad. Sci. USA 92, 1132-1136 (1995); Watanabe et al., Cell 95, 17-27 (1998)). […] Anti-Tac(Fv)-PE38 is an immunotoxin that can specifically recognize cells expressing hIL-2Rα and inhibits their protein synthesis, thereby eliminating the cells expressing hIL-2Rα. The present inventors have developed a method for selectively ablating cholinergic cells in the NAc; the method comprising administering anti-Tac(Fv)-PE38 locally to a transgenic mouse whose NAc specifically expressed hIL-2Rα in cholinergic cells. […] Both wild-type and transgenic mice were C57B6/J strain. […] The above-mentioned IT-treated transgenic mouse was used as cholinergic cell-eliminated mouse (IT-tg) in the Experiments and Examples hereinafter described.
For test [6], the system named is wild-type mice. As to the kind of experiment: Development of cocaine-induced locomotor sensitization in wild-type mice. Conditions: donepezil 1 mg/kg 10 min before daily cocaine 10 mg/kg i.p., 10 min measurement, ANOVA P<0.001, FIG. 5b.
In test [7] the test system is IT-tg and IT-wt mice. As to the kind of experiment: CPP test of sensitivity to addictive drugs in IT-tg and IT-wt mice.
Test [8] has as its system IT-tg and IT-wt mice. As to the kind of experiment: Morphine withdrawal symptom (jumping) induced by naloxone. The following applies: naloxone 1 mg/kg 1 hr after morphine 50 mg/kg.
Test [9] has as its system IT-tg and IT-wt mice. As to the kind of experiment: Conditioned place aversion (CPA) test, naloxone-precipitated morphine withdrawal. Conditions: naloxone 1 mg/kg after morphine 50 mg/kg.
The test system of the next test is IT-tg mice. Put plainly: Cocaine CPP test in IT-tg mice with ACh receptor agonist pretreatment. The class given is in vivo. Conditions: methyl atropine 2 mg/kg pretreatment, pilocarpine 100 mg/kg 20 min before cocaine 5 mg/kg, 3 days, P<0.01 vs saline, FIG. 6.

As to `COc1cc2c(cc1OC)C(=O)C(CC1CCN(Cc3ccccc3)CC1)C2` (stereo not drawn) [donepezil], in the test on IT-wt and IT-tg mice (IT-tg mice, FIG. 5d), the “effects on cocaine-induced locomotion in IT-tg group” value is listed as “not observed”. Further, in the test on IT-wt and IT-tg mice (IT-wt mice, P<0.05, FIG. 5d), the “cocaine-induced abnormal behaviors (locomotor sensitization) in IT-wt group” value was “significantly decreased”. The “degree of cocaine-induced CPP” value with wild-type mice [1] is on record as “significantly reduced”. Also, the “development of morphine-induced CPP” value in the test on wild-type mice [2] was “significantly reduced”. Further, the “abnormal hyperlocomotion after cocaine re-administration on day 12 (relapse)” value with wild-type mice [3] is listed as “no abnormal hyperlocomotion was observed”. Besides, the “cocaine-induced hyperlocomotion on day 6” value in the test with wild-type mice [4] was “significantly effective in inhibiting”. The “morphine-induced CPP in IT-tg mice” value with IT-tg and IT-wt mice [5] (IT-tg mice, FIG. 4b) was “failed to suppress”. Also, the “morphine-induced CPP in IT-wt mice” value with IT-tg and IT-wt mice [5] (IT-wt mice, P<0.01, FIG. 4b) is listed as “significantly reduced”. Besides, the “increase in locomotor activity by repeated cocaine administration (locomotor sensitization)” value in the test on wild-type mice [6] is “no such increase was observed”.

`COc1ccc2c3c1O[C@H]1C[C@@H](O)C=C[C@@]31CCN(C)C2` [galanthamine]: the “cocaine-induced hyperlocomotion on day 6” value in the test on wild-type mice [4] is “significantly effective in inhibiting”.

Turning to `CN1CC[C@]23c4c5ccc(O)c4O[C@H]2[C@@H](O)C=C[C@H]3[C@H]1C5` [morphine], the “place preference for morphine-paired chamber, IT-tg mice, 1 mg/kg” value with IT-tg and IT-wt mice [7] (IT-tg mice, 3-day conditioning with 1 mg/kg morphine i.p., P<0.05, FIG. 2a) is given as “significant preference”. Also, the “place preference for morphine-paired chamber, IT-wt mice, 1 mg/kg” value in the test with IT-tg and IT-wt mice [7] (IT-wt mice, 3-day conditioning with 1 mg/kg morphine i.p., FIG. 2a) is given as “no such preference was observed”. Besides, in the test with IT-tg and IT-wt mice [7] (both IT-tg and IT-wt mice, conditioning with 5 mg/kg morphine), the “place preference for morphine-paired chamber, 5 mg/kg” value is “exhibited place preference”.

Consider `C=CCN1CC[C@]23c4c5ccc(O)c4O[C@H]2C(=O)CC[C@@]3(O)[C@H]1C5` [naloxone], for which the “jumping (physical morphine withdrawal symptom)” value in the test on IT-tg and IT-wt mice [8] (IT-tg and IT-wt morphine-dependent mice, counted over 20 min) is reported as “observed in both”. For the same compound, the “number of jumps, IT-tg vs IT-wt mice” value in the test on IT-tg and IT-wt mice [8] (morphine-dependent mice, 20 min, P<0.05, FIG. 3) is “significantly more number of jumps”. In the test with IT-tg and IT-wt mice [9] (both IT-tg and IT-wt morphine-dependent mice, FIG. 2b), the “place aversion to naloxone-paired chamber” value was “exhibited place aversion”. Also, in the test with IT-tg and IT-wt mice [9] (morphine-dependent mice, P<0.05, FIG. 2b), the “place aversion to naloxone-paired chamber, IT-tg vs IT-wt mice” value is given as “stronger place aversion”.

`CC[C@@H]1C(=O)OC[C@@H]1Cc1cncn1C` [pilocarpine]: the “development of cocaine-induced CPP in IT-tg mice” value in the test on IT-tg mice is listed as “significantly reduced”.
